Laboratory results taken from patent US20220402948A1, “EGFR INHIBITOR, COMPOSITION AND PREPARATION METHOD THEREFOR” (BETTA PHARMACEUTICALS CO., LTD., priority 2019, published 2022).

Columns and labels:
Assay type in all cases: biochemical
EGFRΔ19del/T790M/C797S = EGFRΔ19del/T790M/C797S (Homo sapiens, UniProt P00533, T790M/C797S, form not given); test: EGFR Δ19del/T790M/C797S kinase test (mobility variation analysis, Caliper EZ Reader); conditions: kinase enzymatic activity, Table 1
Description: (§1) Mobility variation analysis was performed to determine the affinity of the compound for EGFRΔ19del/T790M/C797S, EGFR WT and IGF1R. The enzymatic reaction scheme is as follows:
(§2) 1. Prepare 1*kinase buffer as follows.
(§3) 3. […] Prepare 2.5-fold final concentration of kinase solution with 1×Kinase buffer.
(§4) 4. Add 10 μL of 2.5-fold final concentration of kinase solution to the compound well and the positive control well; add 10 μL of 1×Kinase buffer to the negative control well.
(§5) 5. Centrifuge at 1000 rpm for 30 s, shake the reaction plate for well mixing, and then incubate at room temperature for 10 minutes.
(§6) 6. Prepare a mixture of ATP and Kinase substrate at 5/3-fold final concentration with 1×Kinase buffer.
(§7) 8. Centrifuge the 384-well plate at 1000 rpm for 30 s, shake it well and then incubate it at room temperature for corresponding time.
(§8) 9. Add 30 μL of stop detection solution to stop the kinase reaction, centrifuge at 1000 rpm for 30 s, and shake it well.
(§9) 10. Read conversion rate with Caliper EZ Reader.
(§10) % Inhibition=((Conversion%_max−Conversion%_sample)/(Conversion%_max−Conversion%_min))*100
(§11) Wherein: Conversion%_sample is the sample conversion rate reading; Conversion%_min: Mean value of negative control wells, representing the conversion rate reading of wells without enzymatic activity; Conversion%_max: Mean value of positive control wells, representing the conversion rate reading of wells without compound inhibition.
(§12) The dose-effect curve was fitted with concentration log value as X-axis and percentage inhibition rate as Y-axis. GraphPad Prism 5 analysis software was used for fitting Log (inhibitor) vs. response—Variable slope with the dose-effect curve to obtain IC50 value of enzymatic activity for each compound.
(§13) The calculation formula is as Y-Bottom+(Top-Bottom)/(1+10^((Log IC50−X)*HillSlope)).

EGFR WT = EGFR WT (Homo sapiens, UniProt P00533); test: EGFR WT kinase test (mobility variation analysis, Caliper EZ Reader); conditions: kinase enzymatic activity, Table 1
Description: as §1, §2, §3, §4, §5, §6, §7, §8, §9, §10, §11, §12, §13

IGF1R = IGF1R (Homo sapiens, UniProt P08069); test: IGF1R kinase test (mobility variation analysis, Caliper EZ Reader); conditions: kinase enzymatic activity, Table 1; read-out: EGFR IGF1R IC50
Description: as §1, §2
2. Preparation of compound concentration gradient: The test compound was tested with an initial concentration of 3000 nM (300 nM for some triple mutations and 100 nM for others), diluted in a 384 source plate (96-well plate for comparative compound 1 and compounds 1-38) to a 100% DMSO solution with 100-fold final concentration, and the compound is 3-fold diluted with Precision to 10 concentrations. A dispenser Echo 550 was used to transfer 250 nL 100-fold final concentration of the compound to the target plate OptiPlate-384F.
3. Prepare 2.5-fold final concentration (5-fold for comparative compound 1 and compounds 1-38) of kinase solution with 1×Kinase buffer. Following steps should also be carried out for comparative compound 1 and compounds 1-38: Add each prepared intermediate dilution compounds to the compound wells of 384-well plate respectively, and test the repeated wells of each concentration; add 5% DMSO of 5 plates into the negative control well and the positive control well respectively. Prepare 2.5-fold final concentration of kinase solution with 1×Kinase buffer.
as §4, §5, §6
7. Add 15 μL mixture of 5/3-fold (2.5-fold for comparative compound 1 and compounds 1-38) final concentration of ATP and substrate to start reaction.
as §7, §8, §9, §10, §11, §12, §13

EGFRΔ19del/T790M/C797S, sequence (P00533 with tags, fused parts or gaps DEL746-750/T790M/C797S, form open): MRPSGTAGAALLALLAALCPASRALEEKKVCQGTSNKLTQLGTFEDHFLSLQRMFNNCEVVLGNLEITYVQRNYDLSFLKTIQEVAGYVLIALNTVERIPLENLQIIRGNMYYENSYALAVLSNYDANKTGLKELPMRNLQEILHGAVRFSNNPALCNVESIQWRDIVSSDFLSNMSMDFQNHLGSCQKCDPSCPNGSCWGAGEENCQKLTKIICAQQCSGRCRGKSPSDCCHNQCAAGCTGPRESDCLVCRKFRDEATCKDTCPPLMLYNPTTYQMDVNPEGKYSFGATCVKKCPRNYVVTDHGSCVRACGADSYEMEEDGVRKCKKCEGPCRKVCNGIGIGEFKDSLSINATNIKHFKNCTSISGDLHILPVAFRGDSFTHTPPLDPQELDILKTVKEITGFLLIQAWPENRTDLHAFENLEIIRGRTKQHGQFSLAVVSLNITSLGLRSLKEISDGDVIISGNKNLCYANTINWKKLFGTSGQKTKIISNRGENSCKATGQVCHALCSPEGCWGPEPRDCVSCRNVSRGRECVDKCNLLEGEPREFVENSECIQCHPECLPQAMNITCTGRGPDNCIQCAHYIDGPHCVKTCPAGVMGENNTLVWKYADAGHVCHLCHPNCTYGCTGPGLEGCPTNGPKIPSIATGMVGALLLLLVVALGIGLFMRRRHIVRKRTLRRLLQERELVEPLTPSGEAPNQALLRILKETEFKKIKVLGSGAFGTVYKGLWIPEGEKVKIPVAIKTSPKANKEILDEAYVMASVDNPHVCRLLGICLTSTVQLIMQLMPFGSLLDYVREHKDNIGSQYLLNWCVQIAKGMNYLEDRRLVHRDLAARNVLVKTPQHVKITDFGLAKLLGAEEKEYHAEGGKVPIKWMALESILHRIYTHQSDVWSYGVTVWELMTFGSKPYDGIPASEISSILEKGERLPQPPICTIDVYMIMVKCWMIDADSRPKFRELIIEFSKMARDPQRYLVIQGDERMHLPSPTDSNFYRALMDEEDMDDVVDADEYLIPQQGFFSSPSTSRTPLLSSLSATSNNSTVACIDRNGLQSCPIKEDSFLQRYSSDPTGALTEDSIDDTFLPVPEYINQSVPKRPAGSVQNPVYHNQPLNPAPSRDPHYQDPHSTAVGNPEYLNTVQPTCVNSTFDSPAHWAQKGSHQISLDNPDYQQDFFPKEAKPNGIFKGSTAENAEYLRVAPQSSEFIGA
EGFR WT, sequence (P00533 25-1210): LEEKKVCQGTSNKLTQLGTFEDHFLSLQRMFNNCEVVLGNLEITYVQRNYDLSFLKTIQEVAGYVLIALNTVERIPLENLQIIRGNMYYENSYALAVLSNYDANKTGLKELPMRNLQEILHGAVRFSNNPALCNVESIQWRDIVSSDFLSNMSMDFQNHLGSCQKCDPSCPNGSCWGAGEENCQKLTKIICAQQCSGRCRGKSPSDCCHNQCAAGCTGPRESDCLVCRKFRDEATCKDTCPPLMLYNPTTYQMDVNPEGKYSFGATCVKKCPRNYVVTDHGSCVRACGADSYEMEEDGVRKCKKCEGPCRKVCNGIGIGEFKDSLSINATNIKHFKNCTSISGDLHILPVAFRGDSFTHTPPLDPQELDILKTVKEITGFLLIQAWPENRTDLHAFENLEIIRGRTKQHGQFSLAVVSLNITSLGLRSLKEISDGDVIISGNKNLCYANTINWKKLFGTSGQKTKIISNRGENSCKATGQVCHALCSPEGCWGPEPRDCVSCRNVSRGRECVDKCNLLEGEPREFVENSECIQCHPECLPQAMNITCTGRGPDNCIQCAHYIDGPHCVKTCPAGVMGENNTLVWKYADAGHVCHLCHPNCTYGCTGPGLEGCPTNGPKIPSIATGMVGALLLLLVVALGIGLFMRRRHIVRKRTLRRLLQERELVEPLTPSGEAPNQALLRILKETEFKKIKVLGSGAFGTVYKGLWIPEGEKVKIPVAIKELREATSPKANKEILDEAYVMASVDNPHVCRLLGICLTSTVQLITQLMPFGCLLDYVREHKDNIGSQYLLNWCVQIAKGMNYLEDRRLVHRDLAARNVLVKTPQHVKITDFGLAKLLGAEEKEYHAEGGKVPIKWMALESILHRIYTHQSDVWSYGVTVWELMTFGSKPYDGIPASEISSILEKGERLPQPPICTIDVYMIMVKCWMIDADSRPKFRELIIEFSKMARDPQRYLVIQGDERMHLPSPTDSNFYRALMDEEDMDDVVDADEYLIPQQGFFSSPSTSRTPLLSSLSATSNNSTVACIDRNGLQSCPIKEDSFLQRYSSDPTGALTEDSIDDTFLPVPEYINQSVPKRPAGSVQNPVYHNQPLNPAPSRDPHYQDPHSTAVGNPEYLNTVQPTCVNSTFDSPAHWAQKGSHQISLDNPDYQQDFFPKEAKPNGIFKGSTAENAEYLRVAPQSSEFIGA
IGF1R, sequence (P08069 31-1367, species assumed): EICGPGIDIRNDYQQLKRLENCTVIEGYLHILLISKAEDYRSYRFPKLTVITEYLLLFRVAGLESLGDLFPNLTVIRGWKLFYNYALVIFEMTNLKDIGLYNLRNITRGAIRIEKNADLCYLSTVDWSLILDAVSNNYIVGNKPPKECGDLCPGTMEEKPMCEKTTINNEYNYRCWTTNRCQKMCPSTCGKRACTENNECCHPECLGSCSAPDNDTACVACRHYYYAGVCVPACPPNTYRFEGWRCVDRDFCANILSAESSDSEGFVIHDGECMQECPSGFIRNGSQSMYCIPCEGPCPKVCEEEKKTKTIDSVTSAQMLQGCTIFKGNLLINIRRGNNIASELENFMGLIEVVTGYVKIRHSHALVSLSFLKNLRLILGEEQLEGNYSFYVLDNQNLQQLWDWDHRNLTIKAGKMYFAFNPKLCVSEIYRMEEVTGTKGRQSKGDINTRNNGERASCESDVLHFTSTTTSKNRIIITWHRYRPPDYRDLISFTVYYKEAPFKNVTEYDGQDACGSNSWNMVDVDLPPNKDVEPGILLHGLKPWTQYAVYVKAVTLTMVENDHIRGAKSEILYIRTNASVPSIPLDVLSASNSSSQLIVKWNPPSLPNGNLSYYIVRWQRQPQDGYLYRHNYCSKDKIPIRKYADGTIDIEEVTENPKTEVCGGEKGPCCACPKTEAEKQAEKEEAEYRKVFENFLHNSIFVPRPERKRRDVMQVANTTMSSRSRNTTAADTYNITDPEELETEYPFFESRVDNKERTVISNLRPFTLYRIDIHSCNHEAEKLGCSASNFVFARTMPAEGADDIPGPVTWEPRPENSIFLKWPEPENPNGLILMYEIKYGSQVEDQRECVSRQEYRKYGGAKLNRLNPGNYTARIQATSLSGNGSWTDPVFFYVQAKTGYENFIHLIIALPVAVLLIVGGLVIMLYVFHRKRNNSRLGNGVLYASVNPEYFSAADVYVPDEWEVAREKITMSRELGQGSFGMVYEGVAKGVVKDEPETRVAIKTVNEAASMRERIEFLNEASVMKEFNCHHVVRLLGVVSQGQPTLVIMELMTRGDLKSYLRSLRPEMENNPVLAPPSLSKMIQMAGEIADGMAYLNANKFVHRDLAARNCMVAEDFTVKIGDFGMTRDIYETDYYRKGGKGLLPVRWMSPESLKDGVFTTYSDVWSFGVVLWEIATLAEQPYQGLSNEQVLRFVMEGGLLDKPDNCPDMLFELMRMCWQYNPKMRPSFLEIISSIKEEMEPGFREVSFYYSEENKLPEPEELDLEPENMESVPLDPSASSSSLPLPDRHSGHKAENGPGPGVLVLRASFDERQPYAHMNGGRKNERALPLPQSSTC

Row | SMILES | IC50 (EGFRΔ19del/T790M/C797S) [nM] | IC50 (EGFR WT) [nM] | IC50 (IGF1R) [nM]
1 | CCc1cc(Nc2ncc(Br)c(Nc3ccc(-c4ccn[nH]4)cc3P(C)(C)=O)n2)c(OC)cc1N1CCC(N2CCN(C)CC2)CC1 [Compound 39, (2-((5-Bromo-2-((5-ethyl-2-methoxy-4-(4-(4-methylpiperazin-1-yl)piperidin-1-yl)phenyl)amino)pyrimidin-4-yl)amino)-5-(1H-pyrazol-5-yl)phenyl)dimethylphosphine oxide] | 0.4 | 18.3 | 138
2 | CCc1cc(Nc2ncc(Cl)c(Nc3ccc(-c4cnn5c4CC(C)(C)C5)cc3P(C)(C)=O)n2)c(OC)cc1N1CCC(N2CCN(C)CC2)CC1 [Compound 41, (2-((5-Chloro-2-((5-ethyl-2-methoxy-4-(4-(4-methylpiperazin-1-yl)piperidin-1-yl)phenyl)amino)pyrimidin-4-yl)amino)-5-(5,5-dimethyl-5,6-dihydro-tetrahydro-pyrrolo[1,2-b]pyrazol-3-)phenyl)dimethylphosphine oxide] | 1.5 | 58.9 | 748
3 | CCc1cc(Nc2ncc(Br)c(Nc3ccc(-c4cn(C)c5cccnc45)cc3P(C)(C)=O)n2)c(OC)cc1N1CCC(N2CCN(C)CC2)CC1 [Compound 42] | 1.24 | 86.2 | 1170
4 | CCc1cc(Nc2ncc(Br)c(Nc3ccc(-c4cc5cc(C#N)ccc5[nH]4)cc3P(C)(C)=O)n2)c(OC)cc1N1CCC(N2CCN(C)CC2)CC1 [Compound 43] | 2.5 | 82.5 | 748
5 | CCc1cc(Nc2ncc(Cl)c(Nc3ccc(-c4cn[nH]c4)cc3P(C)(C)=O)n2)c(OC)cc1N1CCC(N2CCN(C)CC2)CC1 [Compound 48, (2-((5-Chloro-2-((5-ethyl-2-methoxy-4-(4-(4-methylpiperazin-1-yl)piperidin-1-yl)phenyl)amino)pyrimidin-4-yl)amino)-5-(1H-pyrazol-4-yl)phenyl)dimethylphosphine oxide] | 0.3 | – | 112
6 | CCc1cc(Nc2ncc(Br)c(Nc3ccc(-n4cccn4)cc3P(C)(C)=O)n2)c(OC)cc1N1CCC(N2CCN(C)CC2)CC1 [Compound 49, (2-((5-Bromo-2-((5-ethyl-2-methoxy-4-(4-(4-methylpiperazin-1-yl)piperidin-1-yl)phenyl)amino)pyrimidin-4-yl)amino)-5-(1H-pyrazol-1-yl)phenyl)dimethylphosphine oxide] | 4.1 | 416 | 2780
7 | CCc1cc(Nc2ncc(Br)c(Nc3ccc(-c4cccc5cc[nH]c45)cc3P(C)(C)=O)n2)c(OC)cc1N1CCC(N2CCN(C)CC2)CC1 [Compound 52] | 1.9 | 203 | 1910
8 | CCc1cc(Nc2ncc(Cl)c(Nc3ccc(-c4cnccc4OC)cc3P(C)(C)=O)n2)c(OC)cc1N1CCC(N2CCN(C)CC2)CC1 [Compound 53, (2-((5-Chloro-2-((5-ethyl-2-methoxy-4-(4-(4-methylpiperazin-1-yl)piperidin-1-yl)phenyl)amino)pyrimidin-4-yl)amino)-5-(4-methoxypyridin-3-yl)phenyl)dimethylphosphine oxide] | 0.6 | 64 | 1100
9 | CCc1cc(Nc2ncc(Br)c(Nc3ccc(-c4c(C)cnn4C)cc3P(C)(C)=O)n2)c(OC)cc1N1CCC(N2CCN(C)CC2)CC1 [Compound 54] | 0.6 | 42.2 | 624
10 | CCc1cc(Nc2ncc(Cl)c(Nc3ccc(-c4ccnc5c4ccn5C)cc3P(C)(C)=O)n2)c(OC)cc1N1CCC(N2CCN(C)CC2)CC1 [Compound 56, (2-((5-Chloro-2-((5-ethyl-2-methoxy-4-(4-(4-methylpiperazin-1-yl)piperidin-1-yl)phenyl)amino)pyrimidin-4-yl)amino)-5-(1-methyl-1H-pyrrolo[2,3-b]pyridin-4-yl)phenyl)dimethylphosphine oxide] | 2.4 | 72.5 | 886
11 | CCOc1noc(C)c1-c1ccc(Nc2nc(Nc3cc(CC)c(N4CCC(N5CCN(C)CC5)CC4)cc3OC)ncc2Cl)c(P(C)(C)=O)c1 [Compound 58, (2-((5-Chloro-2-((5-ethyl-2-methoxy-4-(4-(4-methylpiperazin-1-yl)piperidin-1-yl)phenyl)amino)pyrimidin-4-yl)amino)-5-(3-ethoxy-5-methylisoxazol-4-yl)phenyl)dimethylphosphine oxide] | 3.7 | 65 | 274
12 | CCc1cc(Nc2ncc(Br)c(Nc3ccc(-c4ncsc4C)cc3P(C)(C)=O)n2)c(OC)cc1N1CCC(N2CCN(C)CC2)CC1 [Compound 60] | 0.6 | 47 | 418
13 | CCc1cc(Nc2ncc(Br)c(Nc3ccc(-c4ncnn4C)cc3P(C)(C)=O)n2)c(OC)cc1N1CCC(N2CCN(C)CC2)CC1 [Compound 62, (2-((5-Bromo-2-((5-ethyl-2-methoxy-4-(4-(4-methylpiperazin-1-yl)piperidin-1-yl)phenyl)amino]pyrimidin-4-yl)amino)-5-(1-methyl-1H-1,2,4-triazol-5-yl)phenyl)dimethylphosphine oxide] | 0.8 | 216 | 992
14 | CCc1cc(Nc2ncc(Br)c(Nc3ccc(-c4cn(C)cn4)cc3P(C)(C)=O)n2)c(OC)cc1N1CCC(N2CCN(C)CC2)CC1 [Compound 68, (2-((5-Bromo-2-((5-ethyl-2-methoxy-4-(4-(4-methylpiperazin-1-yl)piperidin-1-yl)phenyl)amino)pyrimidin-4-yl)amino)-5-(1-methyl-1H-imidazol-4-yl)phenyl)dimethylphosphine oxide] | 0.9 | 84.7 | 663
15 | CCc1cc(Nc2ncc(Br)c(Nc3ccc(-c4nccn4C4CC4)cc3P(C)(C)=O)n2)c(OC)cc1N1CCC(N2CCN(C)CC2)CC1 [Compound 69] | 4 | 316 | 1940
16 | CCc1cc(Nc2ncc(Br)c(Nc3ccc(-c4cccc(N(C)C)n4)cc3P(C)(C)=O)n2)c(OC)cc1N1CCC(N2CCN(C)CC2)CC1 [Compound 71] | 1.3 | 55.1 | 714
17 | CCc1cc(Nc2ncc(Cl)c(Nc3ccc(-c4cccc5ocnc45)cc3P(C)(C)=O)n2)c(OC)cc1N1CCC(N2CCN(C)CC2)CC1 [Compound K-052, (5-(Benzo[d]oxazol-4-yl)-2-((5-chloro-2-((5-ethyl-2-methoxy-4-(4-(4-methylpiperazin-1-yl)piperidin-1-yl)phenyl)amino)pyrimidin-4-yl)amino)phenyl)dimethylphosphine oxide] | 1.6 | 44 | 886
18 | CCn1cc(-c2cc(Nc3ncc(Br)c(Nc4ccc(-c5cccc6cc[nH]c56)cc4P(C)(C)=O)n3)c(OC)cc2N2CCC(N3CCN(C)CC3)CC2)cn1 [Compound K-091, (2-((5-Bromo-2-((5-(1-ethyl-1H-pyrazol-4-yl)-2-methoxy-4-(4-(4-methylpiperazin-1-yl)piperidin-1-yl)phenyl)amino)pyrimidin-4-yl)amino)-5-(1H-indol-7-yl)phenyl)dimethylphosphine oxide] | 0.8 | 38.8 | 279
19 | CCc1cc(Nc2ncc(Cl)c(Nc3ccc(-c4ccc[nH]c4=O)cc3P(C)(C)=O)n2)c(OC)cc1N1CCC(N2CCN(C)CC2)CC1 [Compound K-092, 3-(4-((5-Chloro-2-((5-ethyl-2-methoxy-4-(4-(4-methylpiperazin-1-yl)piperidin-1-yl)phenyl)amino)pyrimidin-4-yl)amino)-3-(dimethylphosphoryl)phenyl)pyridin-2(1H)-one] | 0.8 | 83.6 | 427
20 | CCn1cc(-c2cc(Nc3ncc(Br)c(Nc4ccc(-c5nn(C)c6ncccc56)cc4P(C)(C)=O)n3)c(OC)cc2N2CCC(N3CCN(C)CC3)CC2)cn1 [Compound K-102, (2-((5-Bromo-2-((5-(1-ethyl-1H-pyrazol-4-yl)-2-methoxy-4-(4-(4-methylpiperazin-1-yl)piperidin-1-yl)phenyl)amino)pyrimidin-4-yl)amino)-5-(1-methyl-1H-pyrazolo[3,4-b]pyridin-3-yl)phenyl)dimethylphosphine oxide] | 0.3 | – | –
